# According to patent US20120264735A1 (priority 2009, published 2012):
# Target: T1, c-Met kinase (recombinant c-Met) (Homo sapiens, UniProt P08581)
# T1 construct: 0.27 nM recombinant c-Met
# Test: In vitro kinase assay I (homogeneous time-resolved fluorescence tyrosine kinase assay)
# Type: biochemical
# In short: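 Biotinylated peptide (0.5 μM) phosphorylated by 0.2 nM recombinant c-Met with 50 μM MgATP, 60 min at room temperature, pH 7.4, 5% DMSO. EDTA stop; HTRF read with Eu-anti-phosphotyrosine antibody and streptavidin-APC. IC50 from 4-parameter logistic fit.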
# T1 sequence (P08581 25-1390): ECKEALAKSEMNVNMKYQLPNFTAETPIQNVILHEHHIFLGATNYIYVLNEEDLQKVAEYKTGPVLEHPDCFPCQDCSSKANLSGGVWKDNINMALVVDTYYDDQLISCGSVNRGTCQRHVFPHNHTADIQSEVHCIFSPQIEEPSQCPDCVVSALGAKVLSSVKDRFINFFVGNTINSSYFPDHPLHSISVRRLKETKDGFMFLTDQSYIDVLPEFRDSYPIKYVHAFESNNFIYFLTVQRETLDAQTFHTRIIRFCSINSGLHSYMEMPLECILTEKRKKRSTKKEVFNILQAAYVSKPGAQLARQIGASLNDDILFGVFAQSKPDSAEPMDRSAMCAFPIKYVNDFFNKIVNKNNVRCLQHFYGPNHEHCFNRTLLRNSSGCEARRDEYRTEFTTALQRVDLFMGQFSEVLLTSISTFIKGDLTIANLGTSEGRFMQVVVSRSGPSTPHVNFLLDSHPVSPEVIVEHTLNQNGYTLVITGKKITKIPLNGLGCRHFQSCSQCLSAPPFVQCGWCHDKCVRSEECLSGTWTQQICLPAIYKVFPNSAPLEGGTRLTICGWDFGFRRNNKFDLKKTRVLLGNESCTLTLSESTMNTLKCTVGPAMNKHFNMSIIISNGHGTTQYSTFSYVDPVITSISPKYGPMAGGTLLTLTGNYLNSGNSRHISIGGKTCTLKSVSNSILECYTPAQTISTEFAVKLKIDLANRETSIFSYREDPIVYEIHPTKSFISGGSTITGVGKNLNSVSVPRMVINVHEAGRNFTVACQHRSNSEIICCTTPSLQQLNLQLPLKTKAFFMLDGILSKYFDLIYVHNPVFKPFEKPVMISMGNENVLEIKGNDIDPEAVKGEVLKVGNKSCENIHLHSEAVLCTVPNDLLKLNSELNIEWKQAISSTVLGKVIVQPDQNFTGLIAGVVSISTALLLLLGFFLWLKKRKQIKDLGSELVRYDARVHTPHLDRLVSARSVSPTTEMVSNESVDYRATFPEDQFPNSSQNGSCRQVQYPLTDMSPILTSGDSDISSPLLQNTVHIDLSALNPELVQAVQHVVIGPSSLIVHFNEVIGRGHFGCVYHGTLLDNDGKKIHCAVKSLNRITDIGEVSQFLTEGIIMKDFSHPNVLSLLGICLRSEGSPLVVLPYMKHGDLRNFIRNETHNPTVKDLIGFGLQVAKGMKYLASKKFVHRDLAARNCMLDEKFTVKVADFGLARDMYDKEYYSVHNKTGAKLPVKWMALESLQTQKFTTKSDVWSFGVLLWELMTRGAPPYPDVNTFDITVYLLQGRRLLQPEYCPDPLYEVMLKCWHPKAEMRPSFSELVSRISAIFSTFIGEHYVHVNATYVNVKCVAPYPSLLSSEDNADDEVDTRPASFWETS
row,Compound,IC50
1,"Cn1cc(-n2ccc(=O)c(Cc3cccc(NC(=O)OC[C@H]4CCCN4)c3)n2)cn1 [Example 615, (2R)-pyrrolidin-2-ylmethyl (3-{[1-(1-methyl-1H-pyrazol-4-yl)-4-oxo-1,4-dihydropyridazin-3-yl]methyl}phenyl)carbamate]",100 to 1000 nM
2,"Cn1cc(-n2ccc(=O)c(Cc3cccc(NC(=O)OC[C@@H]4CCCN4)c3)n2)cn1 [Example 616, (2S)-pyrrolidin-2-ylmethyl (3-{[1-(1-methyl-1H-pyrazol-4-yl)-4-oxo-1,4-dihydropyridazin-3-yl]methyl}phenyl)carbamate]",100 to 1000 nM
3,"Cn1cc(-n2ccc(=O)c(Cc3cccc(NC(=O)OC4CCNCC4)c3)n2)cn1 [Example 618, piperidin-4-yl (3-{[1-(1-methyl-1H-pyrazol-4-yl)-4-oxo-1,4-dihydropyridazin-3-yl]methyl}phenyl)carbamate]",100 to 1000 nM
4,"Cn1cc(-n2ccc(=O)c(Cc3cccc(NC(=O)OCC(=O)O)c3)n2)cn1 [Example 629, ({[(3-{[1-(1-Methyl-1H-pyrazol-4-yl)-4-oxo-1,4-dihydropyridazin-3-yl]methyl}phenyl)amino]carbonyl}oxy)acetic acid]",1000 to 3000 nM
5,"CC(=O)Nc1cccc(Cc2nn(-c3ccccc3)ccc2=O)c1 [Example 631, N-{3-[(4-Oxo-1-phenyl-1,4-dihydropyridazin-3-yl)methyl]phenyl}acetamide]",1000 to 3000 nM
6,"Cn1cc(-n2ccc(=O)c(Cc3cccc(NC(=O)Cc4ccccc4)c3)n2)cn1 [Example 632, N-(3-{[1-(1-methyl-1H-pyrazol-4-yl)-4-oxo-1,4-dihydropyridazin-3-yl]methyl}phenyl)-2-phenylacetamide]",1000 to 3000 nM
7,"CCCC(=O)Nc1cccc(Cc2nn(-c3cnn(C)c3)ccc2=O)c1 [Example 634, N-(3-{[1-(1-methyl-1H-pyrazol-4-yl)-4-oxo-1,4-dihydropyridazin-3-yl]methyl}phenyl)butanamide]",100 to 1000 nM
8,"CCC(=O)Nc1cccc(Cc2nn(-c3cnn(C)c3)ccc2=O)c1 [Example 635, N-(3-{[1-(1-methyl-1H-pyrazol-4-yl)-4-oxo-1,4-dihydropyridazin-3-yl]methyl}phenyl)propanamide]",100 to 1000 nM
9,"Cn1cc(-n2ccc(=O)c(Cc3cccc(N4CCCC4=O)c3)n2)cn1 [Example 636, 1-(1-Methyl-1H-pyrazol-4-yl)-3-[3-(2-oxopyrrolidin-1-yl)benzyl]pyridazin-4(1H)-one]",100 to 1000 nM
10,"Cn1cc(-n2ccc(=O)c(Cc3cccc(N4CCOC4=O)c3)n2)cn1 [Example 637, 1-(1-Methyl-1H-pyrazol-4-yl)-3-[3-(2-oxo-1,3-oxazolidin-3-yl)benzyl]pyridazin-4(1H)-one]",1000 to 3000 nM
11,"CCOC(=O)Nc1cccc(Cc2nn(-c3ccccc3)ccc2=O)c1 [Example 642, Ethyl {3-[(4-oxo-1-phenyl-1,4-dihydropyridazin-3-yl)methyl]phenyl}carbamate]",100 to 1000 nM
12,"CCOC(=O)Nc1cccc(Cc2nn(-c3cnn(CCO)c3)ccc2=O)c1 [Example 643, Ethyl [3-({1-[1-(2-hydroxyethyl)-1H-pyrazol-4-yl]-4-oxo-1,4-dihydropyridazin-3-yl}methyl)phenyl]carbamate]",< 100 nM
13,"CCCOC(=O)Nc1cccc(Cc2nn(-c3cnn(CCO)c3)ccc2=O)c1 [Example 644, propyl [3-({1-[1-(2-hydroxyethyl)-1H-pyrazol-4-yl]-4-oxo-1,4-dihydropyridazin-3-yl}methyl)phenyl] carbamate]",< 100 nM
14,"CC(C)COC(=O)Nc1cccc(Cc2nn(-c3cnn(CCO)c3)ccc2=O)c1 [Example 645, 2-methylpropyl [3-({1-[1-(2-hydroxyethyl)-1H-pyrazol-4-yl]-4-oxo-1,4-dihydropyridazin-3-yl}methyl)phenyl] carbamate]",< 100 nM
15,"CCOC(=O)Nc1cccc(Cc2nn(-c3cccc(O)c3)ccc2=O)c1 [Example 646, Ethyl(3-{[1-(3-hydroxyphenyl)-4-oxo-1,4-dihydropyridazin-3-yl]methyl}phenyl)carbamate]",< 100 nM
16,"CCOC(=O)Nc1cccc(Cc2nn(-c3cnn(CCN)c3)ccc2=O)c1 [Example 647, Ethyl [3-({1-[1-(2-aminoethyl)-1H-pyrazol-4-yl]-4-oxo-1,4-dihydropyridazin-3-yl}methyl)phenyl]carbamate]",100 to 1000 nM
17,"CC(C)COC(=O)Nc1cccc(Cc2nn(-c3cnn(CCN)c3)ccc2=O)c1 [Example 648, 2-methylpropyl [3-({1-[1-(2-aminoethyl)-1H-pyrazol-4-yl]-4-oxo-1,4-dihydropyridazin-3-yl}methyl)phenyl]carbamate]",< 100 nM
18,"CCOC(=O)Nc1cccc(Cc2nn(-c3cccc(OC)c3)ccc2=O)c1 [Example 649, Ethyl(3-{[1-(3-methoxyphenyl)-4-oxo-1,4-dihydropyridazin-3-yl]methyl}phenyl)carbamate]",100 to 1000 nM
19,"CCOC(=O)Nc1cccc(Cc2nn(-c3cccc(OCC)c3)ccc2=O)c1 [Example 650, Ethyl(3-{[1-(3-ethoxyphenyl)-4-oxo-1,4-dihydropyridazin-3-yl]methyl}phenyl)carbamate]",100 to 1000 nM
20,"CCOc1cnc(-c2cccc(Cc3nn(-c4cnn(C5COC5)c4)ccc3=O)c2)nc1 [Example 660, 3-[3-(5-Ethoxypyrimidin-2-yl)benzyl]-1-[1-(oxetan-3-yl)-1H-pyrazol-4-yl]pyridazin-4(1H)-one]",< 100 nM

# Now from value to molecule:
row,IC50,Compound
1,< 100 nM,"O=C(Nc1cccc(Cc2nn(-c3cc(F)cc(F)c3)ccc2=O)c1)OCC1CCOCC1 [Example 606, tetrahydro-2H-pyran-4-ylmethyl (3-{[1-(3,5-difluorophenyl)-4-oxo-1,4-dihydropyridazin-3-yl]methyl}phenyl)carbamate]"
2,< 100 nM,"COCCOCCOC(=O)Nc1cccc(Cc2nn(-c3cc(F)cc(F)c3)ccc2=O)c1 [Example 608, 2-(2-methoxyethoxy)ethyl (3-{[1-(3,5-difluorophenyl)-4-oxo-1,4-dihydropyridazin-3-yl]methyl}phenyl)carbamate]"
3,< 100 nM,"Cn1cc(-n2ccc(=O)c(Cc3cccc(NC(=O)OCC4CC(C)(C)OC(C)(C)C4)c3)n2)cn1 [Example 609, (2,2,6,6-tetramethyltetra-hydro-2H-pyran-4-yl)methyl (3-{[1-(1-methyl-1H-pyrazol-4-yl)-4-oxo-1,4-dihydropyridazin-3-yl]methyl}phenyl)carbamate]"
4,< 100 nM,"Cn1cc(-n2ccc(=O)c(Cc3cccc(NC(=O)OCC4(F)CCOCC4)c3)n2)cn1 [Example 613, (4-fluorotetrahydro-2H-pyran-4-yl)methyl (3-{[1-(1-methyl-1H-pyrazol-4-yl)-4-oxo-1,4-dihydropyridazin-3-yl]methyl}phenyl)carbamate]"
5,< 100 nM,"Cn1cc(-n2ccc(=O)c(Cc3cccc(NC(=O)OCC(F)(F)CN)c3)n2)cn1 [Example 614, 3-Amino-2,2-difluoropropyl (3-{[1-(1-methyl-1H-pyrazol-4-yl)-4-oxo-1,4-dihydropyridazin-3-yl]methyl}phenyl)carbamate]"
6,< 100 nM,"Cn1cc(-n2ccc(=O)c(Cc3cccc(NC(=O)OCC4CCNCC4)c3)n2)cn1 [Example 617, piperidin-4-ylmethyl (3-{[1-(1-methyl-1H-pyrazol-4-yl)-4-oxo-1,4-dihydropyridazin-3-yl]methyl}phenyl)carbamate]"
7,< 100 nM,"Cn1cc(-n2ccc(=O)c(Cc3cccc(NC(=O)OCC4(F)CCNCC4)c3)n2)cn1 [Example 620, (4-fluoropiperidin-4-yl)methyl (3-{[1-(1-methyl-1H-pyrazol-4-yl)-4-oxo-1,4-dihydropyridazin-3-yl]methyl}phenyl)carbamate]"
8,< 100 nM,"CNCCOC(=O)Nc1cccc(Cc2nn(-c3cc(F)c(F)c(F)c3)ccc2=O)c1 [Example 622, 2-(methylamino)ethyl (3-{[4-oxo-1-(3,4,5-trifluorophenyl)-1,4-dihydropyridazin-3-yl]methyl}phenyl)carbamate]"
9,< 100 nM,"O=C(Nc1cccc(Cc2nn(-c3cc(F)c(F)c(F)c3)ccc2=O)c1)OCCCN1CCNCC1 [Example 623, 3-piperazin-1-ylpropyl (3-{[4-oxo-1-(3,4,5-trifluorophenyl)-1,4-dihydropyridazin-3-yl]methyl}phenyl)carbamate]"
10,< 100 nM,"Cn1cc(-n2ccc(=O)c(Cc3cccc(NC(=O)OCCC4CCNCC4)c3)n2)cn1 [Example 624, 2-piperidin-4-ylethyl (3-{[1-(1-methyl-1H-pyrazol-4-yl)-4-oxo-1,4-dihydropyridazin-3-yl]methyl}phenyl)carbamate]"
11,< 100 nM,"Cn1cc(-n2ccc(=O)c(Cc3cccc(NC(=O)OCCN4CCNCC4)c3)n2)cn1 [Example 625, 2-piperazin-1-ylethyl (3-{[1-(1-methyl-1H-pyrazol-4-yl)-4-oxo-1,4-dihydropyridazin-3-yl]methyl}phenyl)carbmate]"
12,< 100 nM,"Cn1cc(-n2ccc(=O)c(Cc3cccc(NC(=O)OCCCN4CCNCC4)c3)n2)cn1 [Example 626, 3-piperazin-1-ylpropyl (3-{[1-(1-methyl-1H-pyrazol-4-yl)-4-oxo-1,4-dihydropyridazin-3-yl]methyl}phenyl)carbamate]"
13,< 100 nM,"N#Cc1cccc(-n2ccc(=O)c(Cc3cccc(NC(=O)OCC4CNC4)c3)n2)c1 [Example 627, azetidin-3-ylmethyl (3-{[1-(3-cyanophenyl)-4-oxo-1,4-dihydropyridazin-3-yl]methyl}phenyl)carbamate]"
14,< 100 nM,"O=C(Nc1cccc(Cc2nn(-c3cc(F)cc(F)c3)ccc2=O)c1)OCCN1CCNCC1 [Example 628, 2-piperazin-1-ylethyl (3-{[1-(3,5-difluorophenyl)-4-oxo-1,4-dihydropyridazin-3-yl]methyl}phenyl)carbamate]"
15,< 100 nM,"Cn1cc(-n2ccc(=O)c(Cc3cccc(NC(=O)OCCO)c3)n2)cn1 [Example 630, 2-Hydroxyethyl(3-{[1-(1-methyl-1H-pyrazol-4-yl)-4-oxo-1,4-dihydropyridazin-3-yl]methyl}phenyl)carbamate]"
16,< 100 nM,"Cn1cc(-n2ccc(=O)c(Cc3cccc(NC(=O)CCc4ccccc4)c3)n2)cn1 [Example 633, N-(3-{[1-(1-methyl-1H-pyrazol-4-yl)-4-oxo-1,4-dihydropyridazin-3-yl]methyl}phenyl)-3-phenylpropanamide]"
